Data on four molecules can be found in patent US10669290B2, “Beta-lactamase inhibitors” (priority 2012, dated 2020).

One assay addresses T1, VIM-2 (Escherichia coli, UniProt Q5U7L7).
T1 construct: made in house; host or cells: E. coli BL21 (DE3)
Put plainly: β-Lactamase inhibition, VIM-2 (nitrocefin substrate). The class given is biochemical. The protocol:
For SHV-5, Kpc-2, p99AmpC and OXA-1 β-lactamases, E. coli BL21 (DE3) bacterial cells carrying expression plasmids (expressed as native untagged proteins) for the individual β-lactamases were grown in 1 L of Superbroth (Teknova Inc. Hollister, Calif.) supplemented with 100 μg/ml kanamycin selection and 1×5052 (0.5% glycerol, 0.05% glucose and 0.2% α-lactose) at 35° C. for 18-20 hours. Cells were harvested by centrifugation (4,000×g, 4° C., 20 min), resuspended in 50 ml of 10 mM HEPES pH 7.5 ( 1/20 of the initial volume). The cells were lysed by sonication (5 pulses of 45 seconds) at 45 W on ice. The lysates were clarified by centrifugation at 10,000×g for 40 minutes at 4° C. Samples were diluted 5-fold in 50 mM sodium acetate pH 5.0, stored overnight at 4° C., after which they were centrifuged at 10,000×g for 30 minutes to clarify, and filtered through 0.45 µm filters. The samples were loaded onto a 5 ml Capto S sepharose cation exchange column (GE Healthcare) pre-equilibrated with 50 mM sodium acetate pH 5.0. […] Active fractions were pooled concentrated, quantitated by BCA protein determination (Thermo Scientific, Rockford, Ill.), dialyzed into PBS and frozen at −80° C. in 20% glycerol until use. […]
(§1) An equal volume of diluted enzyme stock was added, and the plates were incubated at 37° C. for 15 min. […] Absorbance at 486 nm was immediately monitored for 10 min using a Biotek Powerwave XS2 microplate spectrophotometer using the GEN5 software package (Biotek Instruments, Winooski Vt.). In an analogous fashion, imipenem was used as substrate for Kpc-2 and Cefotaxime was used for SHV-5, while changes in absorbance upon hydrolysis of the β-lactam ring were monitored at 300 nm and 260 nm respectively in UV-transparent 96-well microtiter assay plates. Maximum rates of hydrolysis were compared to those in control wells (without inhibitors), and percentages of enzyme inhibition were calculated for each concentration of inhibitor. […]

The subject of another assay is P. aerug. Ps296 VIM-2. As to the kind of experiment: Broth microdilution MIC, P. aeruginosa Ps296. The class given is cell-based. The note with it: fixed meropenem 4 μg/mL, CAMHB, 16-20 hours 37° C. The gist of the method:
(§2)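 CAMHB; compound 32–0.25 μg/mL, 2-fold dilutions; β-lactam partner static at 4 μg/ml; CLSI inoculum from 3-5 h culture; 16-20 h, 37° C; visual MIC.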

The next assay concerns the target T2, KPC-2 (Klebsiella pneumoniae, UniProt Q9F663).
T2 construct: made in house; host or cells: E. coli BL21 (DE3)
Put plainly: β-Lactamase inhibition, KPC-2 (imipenem substrate). The assay is classed as biochemical. As to the method:
(§3) For SHV-5, Kpc-2, p99AmpC and OXA-1 β-lactamases, E. coli BL21 (DE3) bacterial cells carrying expression plasmids (expressed as native untagged proteins) for the individual β-lactamases were grown in 1 L of Superbroth (Teknova Inc. Hollister, Calif.) supplemented with 100 μg/ml kanamycin selection and 1×5052 (0.5% glycerol, 0.05% glucose and 0.2% α-lactose) at 35° C. for 18-20 hours. Cells were harvested by centrifugation (4,000×g, 4° C., 20 min), resuspended in 50 ml of 10 mM HEPES pH 7.5 ( 1/20 of the initial volume). The cells were lysed by sonication (5 pulses of 45 seconds) at 45 W on ice. The lysates were clarified by centrifugation at 10,000×g for 40 minutes at 4° C. Samples were diluted 5-fold in 50 mM sodium acetate pH 5.0, stored overnight at 4° C., after which they were centrifuged at 10,000×g for 30 minutes to clarify, and filtered through 0.45 µm filters. The samples were loaded onto a 5 ml Capto S sepharose cation exchange column (GE Healthcare) pre-equilibrated with 50 mM sodium acetate pH 5.0. […] Active fractions were pooled concentrated, quantitated by BCA protein determination (Thermo Scientific, Rockford, Ill.), dialyzed into PBS and frozen at −80° C. in 20% glycerol until use.
as §1

Another assay deals with K.P. 156319 KPC-3. Put plainly: Broth microdilution MIC, K. pneumoniae 156319. The class given is cell-based. The note with it: for MIC of exemplary compounds in presence of fixed β-lactams, Fixed Mero, K.P. 156319 KPC-3: fixed meropenem 4 μg/mL, CAMHB, 16-20 hours 37° C.
Another assay concerns E. coli ESBL4 CTX-M-15. As to the kind of experiment: Broth microdilution MIC, E. coli ESBL4. The assay is classed as cell-based. Conditions: fixed ceftazidime 4 μg/mL, CAMHB, 16-20 hours 37° C. The gist of the method:
as §2

Another assay addresses T3, SHV-5 (Klebsiella pneumoniae, UniProt P0A3M1).
T3 construct: made in house; host or cells: E. coli BL21 (DE3)
As to the kind of experiment: β-Lactamase inhibition, SHV-5 (cefotaxime substrate). The assay is classed as biochemical. The protocol: as §3, §1

For another assay, the target named is T4, p99 AmpC (Enterobacter cloacae, UniProt P05364).
T4 construct: made in house; host or cells: E. coli BL21 (DE3)
T4 sequence (P05364 21-381): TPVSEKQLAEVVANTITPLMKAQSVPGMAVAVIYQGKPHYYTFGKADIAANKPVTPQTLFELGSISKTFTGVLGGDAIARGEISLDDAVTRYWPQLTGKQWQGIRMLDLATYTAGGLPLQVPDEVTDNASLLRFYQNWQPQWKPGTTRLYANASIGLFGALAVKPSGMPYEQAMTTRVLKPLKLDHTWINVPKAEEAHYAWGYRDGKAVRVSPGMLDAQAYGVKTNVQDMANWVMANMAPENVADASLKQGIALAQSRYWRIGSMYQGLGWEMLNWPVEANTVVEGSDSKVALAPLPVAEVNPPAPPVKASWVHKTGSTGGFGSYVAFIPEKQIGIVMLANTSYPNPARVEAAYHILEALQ
Put plainly: β-Lactamase inhibition, p99 AmpC (nitrocefin substrate). The class given is biochemical. The protocol:
For SHV-5, Kpc-2, p99AmpC and OXA-1 β-lactamases, E. coli BL21 (DE3) bacterial cells carrying expression plasmids (expressed as native untagged proteins) for the individual β-lactamases were grown in 1 L of Superbroth (Teknova Inc. Hollister, Calif.) supplemented with 100 μg/ml kanamycin selection and 1×5052 (0.5% glycerol, 0.05% glucose and 0.2% α-lactose) at 35° C. for 18-20 hours. Cells were harvested by centrifugation (4,000×g, 4° C., 20 min), resuspended in 50 ml of 10 mM HEPES pH 7.5 ( 1/20 of the initial volume). The cells were lysed by sonication (5 pulses of 45 seconds) at 45 W on ice. The lysates were clarified by centrifugation at 10,000×g for 40 minutes at 4° C. Samples were diluted 5-fold in 50 mM sodium acetate pH 5.0, stored overnight at 4° C., after which they were centrifuged at 10,000×g for 30 minutes to clarify, and filtered through 0.45 µm filters. The samples were loaded onto a 5 ml Capto S sepharose cation exchange column (GE Healthcare) pre-equilibrated with 50 mM sodium acetate pH 5.0. The column was washed with 5 column volumes of 50 mM sodium acetate pH 5.0 to wash out unbound protein and a linear gradient of NaCl (0 to 500 mM) was used to elute the protein (over 16 CV) from the column. Fractions were assayed for β-lactamase activity using Centa (Calbiochem, Gibbstown, N.J.) or Nitrocefin (EMD Millipore chemicals, Darmstadt, Germany) as a reporter β-lactamase substrate for activity in the isolated fractions. Active fractions were pooled, concentrated and further purified by gel filtration chromatography on a Superdex 75 prep grade gel filtration column (GE Healthcare, Piscataway, N.J.) pre-equilibrated in 50 mM Hepes pH 7.5, 150 mM NaCl. Active fractions were pooled concentrated, quantitated by BCA protein determination (Thermo Scientific, Rockford, Ill.), dialyzed into PBS and frozen at −80° C. in 20% glycerol until use.
An equal volume of diluted enzyme stock was added, and the plates were incubated at 37° C. for 15 min. Nitrocefin was used as substrate for p99 AmpC, VIM-2 and OXA-1 and dispensed into each well at a final concentration of 100 μM. Absorbance at 486 nm was immediately monitored for 10 min using a Biotek Powerwave XS2 microplate spectrophotometer using the GEN5 software package (Biotek Instruments, Winooski Vt.). In an analogous fashion, imipenem was used as substrate for Kpc-2 and Cefotaxime was used for SHV-5, while changes in absorbance upon hydrolysis of the β-lactam ring were monitored at 300 nm and 260 nm respectively in UV-transparent 96-well microtiter assay plates. Maximum rates of hydrolysis were compared to those in control wells (without inhibitors), and percentages of enzyme inhibition were calculated for each concentration of inhibitor. The concentration of inhibitor needed to reduce the initial rate of hydrolysis of substrate by 50% (IC50) was calculated as the residual activity of β-lactamase at 486 nm using GraFit version 7 kinetics software package (Erithacus Software, Surrey, UK).
Using the methodology described above, examples of the current invention were evaluated for their ability to inhibit β-lactamase enzymes from all four Ambler classifications (A through D). […] NT=Not tested.

Another assay relates to E. cl 144200 p99 AmpC. Put plainly: Broth microdilution MIC, E. cloacae 144200. The assay is classed as cell-based. Conditions: fixed ceftazidime 4 μg/mL, CAMHB, 16-20 hours 37° C. The gist of the method:
as §2

The target in the next assay is T5, OXA-1 (Escherichia coli, UniProt P13661).
T5 construct: made in house; host or cells: E. coli BL21 (DE3)
T5 sequence (P13661 26-276): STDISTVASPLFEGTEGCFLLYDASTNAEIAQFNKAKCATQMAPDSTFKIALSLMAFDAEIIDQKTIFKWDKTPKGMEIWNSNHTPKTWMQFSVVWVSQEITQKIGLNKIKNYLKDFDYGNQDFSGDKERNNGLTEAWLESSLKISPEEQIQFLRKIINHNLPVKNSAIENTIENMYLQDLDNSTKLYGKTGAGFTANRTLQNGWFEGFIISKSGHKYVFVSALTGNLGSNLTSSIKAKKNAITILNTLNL
Put plainly: β-Lactamase inhibition, OXA-1 (nitrocefin substrate). The assay is classed as biochemical. The protocol: as §3, §1

In assay [1] the test system is K.P. A-1797 KPC-2 VIM-4. As to the kind of experiment: Broth microdilution MIC, K. pneumoniae A-1797. The class given is cell-based. The note with it: fixed meropenem 4 μg/mL, CAMHB, 16-20 hours 37° C.
Assay [2] deals with K.P. A-1797 KPC-2 VIM-4. Put plainly: Broth microdilution MIC, K. pneumoniae A-1797. The assay is classed as cell-based. Conditions: Klebsiella pneumoniae; partner antibiotic alone, K. pneumoniae expressing KPC-2 and VIM-4.
For another assay, the system named is S. aureus MSSA-7 PC-1. Put plainly: Broth microdilution MIC, S. aureus MSSA-7. The class given is cell-based. Conditions: Staphylococcus aureus, partner antibiotic alone, S. aureus producing Class A penicillinase PC-1.

Molecules are shown by their SMILES. pIC50: −log10 of the molar value. In brackets after ≈: the same amount, converted by molar mass. Where only a bound is given, the exact number is not on record here.

T2 sequence (Q9F663 25-293 limits assumed): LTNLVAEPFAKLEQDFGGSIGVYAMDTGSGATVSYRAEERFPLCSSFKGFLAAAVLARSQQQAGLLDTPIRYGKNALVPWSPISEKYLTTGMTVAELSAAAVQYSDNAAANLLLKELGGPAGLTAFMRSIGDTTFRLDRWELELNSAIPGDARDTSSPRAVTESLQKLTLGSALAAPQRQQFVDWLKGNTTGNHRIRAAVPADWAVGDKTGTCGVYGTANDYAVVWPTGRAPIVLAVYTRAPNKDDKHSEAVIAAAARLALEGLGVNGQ
T3 sequence (P0A3M1 22-286): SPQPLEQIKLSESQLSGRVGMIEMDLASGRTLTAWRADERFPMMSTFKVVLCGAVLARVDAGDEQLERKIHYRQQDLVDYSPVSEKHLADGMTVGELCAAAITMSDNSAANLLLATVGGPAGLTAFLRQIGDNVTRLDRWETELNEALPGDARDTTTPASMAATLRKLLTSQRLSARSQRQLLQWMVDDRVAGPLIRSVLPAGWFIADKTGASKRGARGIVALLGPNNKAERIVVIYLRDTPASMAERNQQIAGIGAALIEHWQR

As to `N[C@H]1CC(C(=O)N[C@H]2Cc3cccc(C(=O)O)c3OB2O)C[C@@H]1N` (mixture of isomers) [Example 19, (3R)-3-[[(3S,4S)-3,4-diaminocyclopentanecarbonyl]amino]-2-hydroxy-3,4-dihydro-1,2-benzoxaborinine-8-carboxylic acid and (3R)-3-[[(3R,4R)-3,4-diaminocyclopentanecarbonyl]amino]-2-hydroxy-3,4-dihydro-1,2-benzoxaborinine-8-carboxylic acid], the pIC50 against VIM-2 was above 7.00; against KPC-2, above 7.00; against SHV-5, 6.00 to 7.00; at p99 AmpC it was above 7.00; on OXA-1, above 7.00. For the same molecule, the “MIC of exemplary compounds in presence of fixed β-lactams, Fixed Mero, P. aerug. Ps296 VIM-2” value in the assay on P. aerug. Ps296 VIM-2 is given as “C (C represents the MIC in the presence of <4 μg/mL of a β-lactamase inhibitor of exemplary compounds)”. Moreover, in the assay with K.P. 156319 KPC-3, the “MIC of exemplary compounds in presence of fixed β-lactams, Fixed Mero, K.P. 156319 KPC-3” value is listed as “C (C represents the MIC in the presence of <4 μg/mL of a β-lactamase inhibitor of exemplary compounds)”. Further, the “MIC of exemplary compounds in presence of fixed β-lactams, Fixed CAZ, E. coli ESBL4 CTX-M-15” value in the assay with E. coli ESBL4 CTX-M-15 is given as “C (C represents the MIC in the presence of <4 μg/mL of a β-lactamase inhibitor of exemplary compounds)”. For the same molecule, the “MIC of exemplary compounds in presence of fixed β-lactams, Fixed CAZ, E. cl 144200 p99 AmpC” value in the assay on E. cl 144200 p99 AmpC was “C (C represents the MIC in the presence of <4 μg/mL of a β-lactamase inhibitor of exemplary compounds)”. For the same molecule, the “MIC of exemplary compounds in presence of fixed β-lactams, Fixed Mero, K.P. A-1797 KPC-2 VIM-4” value in the assay with K.P. A-1797 KPC-2 VIM-4 [1] is given as “C (C represents the MIC in the presence of <4 μg/mL of a β-lactamase inhibitor of exemplary compounds)”.
As for `N[C@@H]1CC[C@@H](C(=O)N[C@H]2Cc3cccc(C(=O)O)c3OB2O)C[C@H]1N` (mixture of isomers) [Example 20, (3R)-3-[[(1S,3S,4S)-3,4-diaminocyclohexanecarbonyl]amino]-2-hydroxy-3,4-dihydro-1,2-benzoxaborinine-8-carboxylic acid and (3R)-3-[[(1R,3R,4R)-3,4-diaminocyclohexanecarbonyl]amino]-2-hydroxy-3,4-dihydro-1,2-benzoxaborinine-8-carboxylic acid], the negative logarithm of the IC50 (pIC50) was above 7.00 against VIM-2; 6.00 to 7.00 against KPC-2; 5.00 to 6.00 on SHV-5; above 7.00 against p99 AmpC; 6.00 to 7.00 against OXA-1. Also, in the assay on P. aerug. Ps296 VIM-2, the “MIC of exemplary compounds in presence of fixed β-lactams, Fixed Mero, P. aerug. Ps296 VIM-2” value was “C (C represents the MIC in the presence of <4 μg/mL of a β-lactamase inhibitor of exemplary compounds)”. For the same molecule, the “MIC of exemplary compounds in presence of fixed β-lactams, Fixed Mero, K.P. 156319 KPC-3” value in the assay with K.P. 156319 KPC-3 is on record as “C (C represents the MIC in the presence of <4 μg/mL of a β-lactamase inhibitor of exemplary compounds)”. Further, the “MIC of exemplary compounds in presence of fixed β-lactams, Fixed CAZ, E. coli ESBL4 CTX-M-15” value in the assay on E. coli ESBL4 CTX-M-15 was “C (C represents the MIC in the presence of <4 μg/mL of a β-lactamase inhibitor of exemplary compounds)”. Also, the “MIC of exemplary compounds in presence of fixed β-lactams, Fixed CAZ, E. cl 144200 p99 AmpC” value in the assay on E. cl 144200 p99 AmpC is “C (C represents the MIC in the presence of <4 μg/mL of a β-lactamase inhibitor of exemplary compounds)”. For the same molecule, in the assay on K.P. A-1797 KPC-2 VIM-4 [1], the “MIC of exemplary compounds in presence of fixed β-lactams, Fixed Mero, K.P. A-1797 KPC-2 VIM-4” value was “B (B represents the MIC in the presence of between 8 and 32 μg/mL of a β-lactamase inhibitor of exemplary compounds)”.
On to `C[C@@H](O)[C@H]1C(=O)N2C(C(=O)O)=C(S[C@@H]3CN[C@H](C(=O)N(C)C)C3)[C@H](C)[C@H]12` [Meropenem, reference compound], for which the minimal inhibitory concentration (MIC) against K.P. A-1797 KPC-2 VIM-4 [2] was 64 µg/mL (≈ 167 µM); with K.P. 156319 KPC-3 (Klebsiella pneumoniae, read-out: MIC alone), above 128 µg/mL.
`CCN1CCN(C(=O)N[C@@H](C(=O)N[C@@H]2C(=O)N3[C@@H]2SC(C)(C)[C@@H]3C(=O)O)c2ccccc2)C(=O)C1=O` [Piperacillin] registered a minimal inhibitory concentration (MIC) against S. aureus MSSA-7 PC-1 of 64 µg/mL (≈ 124 µM).
